In patent US10945995B2, “Compositions and methods for channelopathy disorders-targeting fluid movement across membranes” (DEHA, LLC, priority 2017, dated 2021):

What was measured:
AQP-2 = molecular target: T1, AQP-2 (Homo sapiens, UniProt P41181); experiment: Kinetic screening assay, cells overexpressing AQP-2; format: cell-based
T1 construct: expressed in transfected cells
T1 sequence (P41181 1-271): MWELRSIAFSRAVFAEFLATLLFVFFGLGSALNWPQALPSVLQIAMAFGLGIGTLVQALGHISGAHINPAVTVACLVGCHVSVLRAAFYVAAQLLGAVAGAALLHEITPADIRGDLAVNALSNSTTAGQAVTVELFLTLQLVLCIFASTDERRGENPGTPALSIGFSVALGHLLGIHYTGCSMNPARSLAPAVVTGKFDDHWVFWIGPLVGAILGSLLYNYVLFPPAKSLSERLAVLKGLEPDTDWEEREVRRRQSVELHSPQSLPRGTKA
Excerpt: Effects of candidate AQP-4 inhibitors on cell swelling in vitro. Kinetic screening assay: In order to assess the effects of the resulting 50 compounds selected from in silico screening efforts on cell swelling, a calcein-fluorescence assay that measures plasma membrane water permeability was used. Alvarez-Leefmans et al. established a technique to estimate changes in cell volume as a function of changes in concentration using a calcein-AM, a non-fluorescent and membrane-permeant dye.^53 After entering the cell, calcein-AM is converted to calcein by removal of the acetoxymethyl group (AM) by intracellular esterases. […] The fluorescence signal is calibrated by brief exposures of the calcein-loaded cells to, for example, 15% hypotonic and 15% hypertonic solutions and the average signal intensity from the cell is detected. […] The test compounds were then added (4-9 μM) and the fluorescence was measured using a Biotek plate reader (excitation 490 nm and emission 515 nm). Relative fluorescence intensity (RfU) was calculated as the fluorescence intensity of each well divided by the mean fluorescence intensity of cells treated with DMSO (control). […]
AQP-2 DHA-35. Using the kinetic screening assay described hereinabove, cells overexpressing AQP-2 were screened with test compounds of interest and their fluorescence signal were evaluated. […]

AQP-6 = molecular target: T2, AQP-6 (Homo sapiens, UniProt Q13520); experiment: Kinetic screening assay, cells overexpressing AQP-6; format: cell-based
T2 construct: expressed in transfected cells
T2 sequence (Q13520 1-282): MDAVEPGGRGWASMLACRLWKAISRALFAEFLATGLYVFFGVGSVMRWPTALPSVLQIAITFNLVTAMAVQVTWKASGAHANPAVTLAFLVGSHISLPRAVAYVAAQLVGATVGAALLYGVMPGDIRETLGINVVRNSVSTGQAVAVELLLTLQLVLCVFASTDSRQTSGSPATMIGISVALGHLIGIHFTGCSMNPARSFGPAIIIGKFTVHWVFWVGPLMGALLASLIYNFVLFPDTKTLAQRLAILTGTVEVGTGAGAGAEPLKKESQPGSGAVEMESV

[1] = test system: rat traumatic brain injury model; details: cited from earlier work
AQP-4 [2] = details: rat model of epilepsy; cited from earlier work
AQP-11 = molecular target: T3, AQP-11 (Homo sapiens, UniProt Q8NBQ7); experiment: Kinetic screening assay, cells overexpressing AQP-11; format: cell-based
T3 construct: expressed in transfected cells
T3 sequence (Q8NBQ7 1-271): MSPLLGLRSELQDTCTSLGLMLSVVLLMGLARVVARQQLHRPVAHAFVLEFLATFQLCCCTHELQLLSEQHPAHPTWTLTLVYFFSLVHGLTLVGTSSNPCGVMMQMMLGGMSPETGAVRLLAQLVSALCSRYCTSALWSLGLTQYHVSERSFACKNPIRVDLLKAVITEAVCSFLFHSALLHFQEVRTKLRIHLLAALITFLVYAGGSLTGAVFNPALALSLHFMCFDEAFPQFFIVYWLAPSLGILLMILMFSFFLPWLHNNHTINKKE

AQP-4 [3] = details: pre-treatment, mouse model of stroke; cited from earlier work

For CSc1ccc(C(=O)NC(c2ccc3c(c2)CCO3)[C@H]2C[C@@H](O)C2)cc1 (stereo partly shown) [DHA-35], the “AQP-2 activity, fluorescence signal” value (AQP-2) was “inhibitor”.
With COCC(C)n1c(CCCC(=O)N2CCC3(CC2)CNC(=O)C3)nc2cccnc21 (stereo not shown) [DHA-36] the “AQP-6 activity, fluorescence signal” value (AQP-6) was “inhibitor”.
In the case of CC(=O)Nc1nnc(S(N)(=O)=O)s1 [Acetazolamide, acetazolamide], the edema [1] is listed as “reduce edema” and the “AQP-4 inhibition in vivo” value (AQP-4 [2]) is listed as “inhibit AQP-4”.
With Cc1onc(-c2ccccc2)c1C(=O)NCc1nnc(SCc2ccccc2Cl)n1CC(C)C [DHA-37] the “AQP-11 activity, fluorescence signal” value (AQP-11) was “modulators”.
For O=C(Nc1nncs1)c1cccnc1 [TGN-020, 2-(nicotinamide)-1,3,4-thiadiazole], the “edema and infarct size” value (AQP-4 [3]) is given as “reduce edema and infarct size”.
For C=CCn1nc(C(=O)N2CCCCCC2)c2c1CCC(NCCCN1CCCC1=O)C2 (stereo not shown) [DHA-6], the “AQP-11 activity, fluorescence signal” value (AQP-11) was “modulators”.
